Source: patent publication US20250127167A1, “ANTIMICROBIAL PEPTIDES” (priority 2021, published 2025)
“Also recorded” adds a separate entry of the source. Like-named read-outs stand apart in the source and are kept apart here. Where a SMILES comes first, the peptide text is derived from it. [ ]: non-standard residue; d: D form. Phe(4-F) = N[C@@H](Cc1ccc(F)cc1)C(=O)O; Dopa = N[C@@H](Cc1ccc(O)c(O)c1)C(=O)O

Key:
T4 bacteriophage [1] = assay: Antiviral activity for coatings against T4 bacteriophage (bacteriophage plaque assay); assay type: cell-based, Escherichia coli bacteriophage T4; conditions: for virus titer of bacteriophage T4 on dipeptide coatings: 10 mg/mL drop-casted three times, bare glass 29000±2000 PFU/mL; for virus titer of bacteriophage T4 on dipeptide coatings / viral titer of T4 bacteriophage / virus titer of T4 bacteriophage: 24 h; for reduction of the viral titer by dipeptide coatings: versus bare glass; for virus titer of T4 bacteriophage: 3-layer coating on glass, bare glass 13579±2839
Procedure: The antiviral activity performance was measured according to work by Kim et al. and Matsumoto et al. with some modification. The peptide coatings were prepared as described before. We used T4 bacteriophage as the virus when we measured the antiviral activity. Bacteriophage suspension was propagated on E. coli (ATCC 11303) according to ISO 18061, which was grown as the host strain. The mixture obtained by adding 100 μL of fresh T4 phage to an overnight culture of E. coli was incubated for 4 h in a 10 mL LB phage at 37° C. After multiplication, the virus was collected by centrifugation at 4000×g for 10 min at room temperature. The concentration of T4 bacteriophage was measured using the soft agar overlay (double-agar layer) plaque assay method. The supernatant containing the bacteriophage culture was filtrated through cellulose acetate filters (Millipore Acrodisc; the pore sizes were 0.45 μm and 0.22 μm) before use (the final concentration of bacteriophage was 10^9 PFU/mL).
Ten decimal serial dilutions of the virus suspension were prepared by LB phage. The aqueous suspensions for the E. coli and T4 bacteriophage inactivation experiments contained sample surfaces having dimensions of 1*1 cm and T4 phage at 1.0×10^6 plaque-forming units (PFU)/mL. As a positive control, we also added 16 μL 1.0×10^6 plaque-forming units (PFU)/mL bacteriophage T4 on bare glass and then treated the surface by a UV irradiation (long wave ultraviolet 365 nm) for 3 h. Next, the phages were incubated under humid conditions at room temperature (25° C.) in a dark room for 24 h. After incubation, the phages were harvested by shaking with 2 mL SCDLP broth for 15 min to stop the incubation. The T4 in SCDLP bacteriophage was diluted with LB phage 10-fold. Subsequently, samples and bacteria were mixed with 0.6% agarose. Then the mixture was spread out on 1.5% LB agar to form a double agar layer. The plate was incubated at 37° C. for 18 h to form the plaques. The antiviral activity was defined and calculated as eq 2 below: The initial virus titer (No) and the virus titer after incubation (N) were calculated by counting the plaque number. For each sample, 9 repeats were performed to assess the antiviral activity.
The antiviral activity performance was measured according to our previous work. Briefly, 10 decimal serial dilutions of the virus suspension were prepared by LB phage. The aqueous suspensions for the E. coli and T4 bacteriophage inactivation experiments contained sample surfaces with dimensions of 1*1 cm and T4 phage at 1.0×106 plaque-forming units (PFU)/mL. Next, the phages were incubated under humid conditions at room temperature (25° C.) in a dark room for 24 h. After incubation, the phages were harvested by shaking them with 2 mL SCDLP broth for 15 min to stop the incubation. The T4 in the SCDLP bacteriophage was diluted with LB phage 10-fold. Subsequently, samples and bacteria were mixed with 0.6% agarose. Then, the mixture was spread out on 1.5% LB agar to form a double agar layer. The plate was incubated at 37° C. for 18 h to form the plaques. The antiviral activity was defined and calculated as follows: The initial virus titer (NO) and the virus titer after incubation (N) were calculated by counting the plaque number. For each sample, 9 repeats were performed to assess the antiviral activity.

T4 bacteriophage [2] = tested on: T4 bacteriophage
Procedure: All the tripeptide powders were firstly dissolved into ethanol and diluted by TDW. The solutions were stirring for 3 h (150 rpm, room temperature) for complete self-assembly. The final concentration is 10 mg/mL. […] As a control, single amino acids (L-DOPA, L-Phenylalanine, and 4-Fluoro-L-phenylalanine) were also used to examine their antiviral activity. To further evaluate the antiviral activity for the peptide assemblies, the antiviral MIC for traditional Ag and Cu nanoparticles were also tested. The stock solutions were two-fold diluted using LB phage to obtain a series of peptide concentrations until the lowest concentration needed was achieved. Next, the 100 μL T4 bacteriophage (10^5 PFU/mL) and 100 μL diluted peptide solutions were transferred into 800 μL LB phage and then the samples were shaken at 150 rpm at room temperature. After 24 h incubation, the samples were centrifuged at 14000 g for 10 min to precipitate the peptide particles. Supernatants were collected and then 10-fold diluted once. Then, the 20 μL supernatants were mixed with 25 μL bacteria (E. coli. ATCC11303) in 1 mL warm 0.6% agarose. Then the mixture was spread out on 1.5% LB agar to form a double agar layer. The plate was incubated at 37° C. for 18 h to form the plaques. The lowest concentration of peptides that prevented virus growth is defined as the antiviral minimum inhibitory concentration (MIC).
A series of two-fold diluted peptide solutions (1000, 500, 250, 125, 62.5, 31.25, 15.625, and 7.8125 µg/mL) was prepared to measure the antiviral MIC. Next, 100 μL T4 bacteriophage (10^5 PFU/mL) and 100 μL diluted peptide solutions were transferred into 800 μL LB phage; then, the samples were shaken at 150 rpm at room temperature. After 24 h incubation, the samples were centrifuged at 14000×g for 10 min to precipitate the peptide particles. Supernatants were collected and then 10-fold diluted once. Next, the 20 μL supernatants were mixed with 25 μL bacteria (E. coli. ATCC11303) in 1 mL of warm 0.6% agarose. Then, the mixture was spread out on 1.5% LB agar to form a double agar layer. The plate was incubated at 37° C. for 18 h to form plaques. The lowest concentration of peptides that prevented virus growth is defined as the antiviral minimum inhibitory concentration (MIC). L-DOPA, L-phenylalanine, L-Phe(4F), Phe(4F)-Phe(4F), and diphenylalanine were used as controls.

[3] = Stability of peptide coatings (XPS after immersing or washing); assay type: physicochemical; conditions: 3-layer coating
Procedure: X-ray photoelectron spectroscopy (XPS) analyses were performed by using an AXIS Ultra X-ray photoelectron spectrometer (Kratos Analytical, Ltd., Manchester, UK). The sample's take-off angle was 90°. The vacuum pressure in the analyzing chamber was maintained at 2×10^−9 Torr. High-resolution XPS spectra were collected for F is, O is, C is, and N is peaks with 20 eV pass energy and 0.1 eV step size. Data analyses were carried out using Kratos Vision data reducing processing software (Kratos Analytical, Ltd.) and Casa XPS (Casa Software, Ltd.).
(§1) To examine the coating stabilities, peptide coatings were immersed into TDW for 5 min or washed with 2 mL TDW three times and then dried at room temperature. X-ray photoelectron spectroscopy (XPS) analyses were performed for the immersed and washed coatings. Moreover, peptide coatings were wiped with a finger at a load of 1 g and then water contact angle measurements were performed using the same method as described in the Contact angle measurements section.

[4] = Water contact angle measurements of coated glass; assay type: physicochemical; conditions: for water contact angle after wiping: 3-layer coating, wiped at a load of 1 g
Procedure: Contact angle measurements were examined by using a Theta Lite optical tensiometer (Attension, Finland). Each experimental measurement consisted of three repeats.
as §1

Canine coronavirus (CCV) = assay type: cell-based; conditions: for log (TCID50/mL) of CCV: 3-layer coating, 3 h incubation, uncoated glass 4.77±0.12; for effect on CCV (in words): 3-layer coatings / controls
fruit and plant viruses = assay: Antiviral activity against fruit viruses
From the text: The potential antiviral activity of DOPA-Phe(Br)—OH against fruit viruses and other microbial sources was also investigated.

[5] = Table 1, tripeptide assemblies, single amino acids and metal nanoparticles, 24 h incubation

For `NC(=O)[C@H](Cc1ccc(F)cc1)NC(=O)[C@@H](N)Cc1ccc(O)c(O)c1` [DOPA-Phe(4F)-NH2] (H-[Dopa]-[Phe(4-F)]-NH2), the “virus titer of bacteriophage T4 on dipeptide coatings” value (T4 bacteriophage [1]) was “no viruses were detected”, the “reduction of the viral titer by dipeptide coatings” value (T4 bacteriophage [1]) was about 4 logs and the “antiviral activity against T4 bacteriophage (in words)” value (T4 bacteriophage [2]; in solution) was “exhibited antiviral activity”. For the same compound, the “Antiviral MIC” value (T4 bacteriophage [2]; in solution, T4 bacteriophage) was 62.5 µg/mL.

For `COC(=O)[C@H](Cc1ccc(F)cc1)NC(=O)[C@H](Cc1ccc(F)cc1)NC(=O)[C@@H](N)Cc1ccc(O)c(O)c1` [DOPA-Phe(4F)-Phe(4F)-OMe] (H-[Dopa]-[Phe(4-F)]-[Phe(4-F)]-OMe; N-terminus assumed), the “reduction of viral titer compared with bare glass” value (“reduction of viral titer” for short) (T4 bacteriophage [1]; 1 layer coating) was 79%, the “reduction rate (log (N/No)) of virus titers” value (shortened to “reduction rate (log (N/No))”) (T4 bacteriophage [1]; 1 layer coating) was −0.7 and the “viral titer of T4 bacteriophage” value (T4 bacteriophage [1]; 1 layer coating on glass) was 2610±369 PFU/mL. The “reduction of viral titer” value (T4 bacteriophage [1]; 2 layers coating) was 91%, the “reduction rate (log (N/No))” value (T4 bacteriophage [1]; 2 layers coating) was −1.1 and the “viral titer of T4 bacteriophage” value (T4 bacteriophage [1]; 2 layers coating on glass) was 1111±201 PFU/mL. For the same compound, the “reduction of virus titers compared to the glass surfaces” value (T4 bacteriophage [1]; 3-layer coating) was 3 log, the “reduction of virus titers compared to the stock solution” value (T4 bacteriophage [1]; 3-layer coating) was 6 log and the “virus titer of T4 bacteriophage” value (T4 bacteriophage [1]) was 3±6 PFU/mL. The “reduction of viral titer” value (T4 bacteriophage [1]; 3 layer coating) was 99.9%, the “reduction rate (log (N/No))” value (T4 bacteriophage [1]; 3 layers coating) was −3.7 and the “XPS signals after immersing in TDW for 5 min or washing three times” value [3] was “did not decrease”. The water contact angle ([4]; 1 layer on glass, bare glass 12±2°) was 23±2 °, the water contact angle ([4]; 2 layers on glass) was 34±2 ° and the “water contact angle after wiping” value [4] was 33±1 °. The water contact angle ([4]; 3 layers on glass) was 38±4 °, the “Antiviral MIC” value (T4 bacteriophage [2]; [5]) was 31 µg/mL and the “log (TCID50/mL) of CCV” value (Canine coronavirus (CCV)) was “below the detection limit”.

For `NC(=O)[C@H](Cc1ccccc1)NC(=O)[C@@H](N)Cc1ccc(O)c(O)c1` [DOPA-Phe-NH2] (H-[Dopa]-Phe-NH2; N-terminus assumed), the “virus titer of bacteriophage T4 on dipeptide coatings” value (T4 bacteriophage [1]) was “no viruses were detected”, the “reduction of the viral titer by dipeptide coatings” value (T4 bacteriophage [1]) was about 4 logs and the “Antiviral MIC” value (T4 bacteriophage [2]; 24 h) was 125.00 µg/mL. For the same compound, the “antiviral activity against T4 bacteriophage (in words)” value (T4 bacteriophage [2]; in solution) was “exhibited antiviral activity” and the Antiviral MIC (T4 bacteriophage [2]; in solution, T4 bacteriophage) was 125 µg/mL.

With `COC(=O)[C@H](Cc1ccccc1)NC(=O)[C@H](Cc1ccccc1)NC(=O)[C@@H](N)Cc1ccc(O)c(O)c1` [DOPA-Phe-Phe-OMe] (H-[Dopa]-Phe-Phe-OMe; N-terminus assumed) the “reduction of virus titers compared to the glass surfaces” value (T4 bacteriophage [1]; 3-layer coating) was 0.2 log, the “virus titer of T4 bacteriophage” value (T4 bacteriophage [1]) was 8029±205 PFU/mL and the “reduction rate (log (N/No))” value (T4 bacteriophage [1]; 3 layers coating) was −0.2. The “XPS signals after immersing in TDW for 5 min or washing three times” value [3] was “did not change appreciably”, the “water contact angle after wiping” value [4] was 25±2 ° and the water contact angle ([4]; 3 layers on glass) was 29±1 °. The “Antiviral MIC” value (T4 bacteriophage [2]; [5]) was 62 µg/mL and the “log (TCID50/mL) of CCV” value (Canine coronavirus (CCV)) was “below the detection limit”.

In the case of `N[C@@H](Cc1ccc(O)c(O)c1)C(=O)O` [L-DOPA, 3,4-dihydroxy-L-phenylalanine], the “antiviral activity of drop-casted controls against T4 bacteriophage (in words)” value (T4 bacteriophage [1]; drop-casted three times / deposited on glass, compared to a glass surface) is reported as “did not decrease the viral titers”, the “antiviral activity against T4 bacteriophage (in words)” value (T4 bacteriophage [2]; in solution, listed as DOPA) is reported as “did not show any antiviral activity” and the “log (TCID50/mL) of CCV” value (Canine coronavirus (CCV)) is reported as 4.37±0.31 log (TCID50/mL). For the same compound, the “effect on CCV (in words)” value (Canine coronavirus (CCV)) was “do not appreciably affect the viability of CCV” and the “effect on CCV (in words)” value (Canine coronavirus (CCV); listed as DOPA) was “did not show any antiviral activity”.

In the case of `N[C@@H](Cc1ccc(F)cc1)C(=O)O` [L-Phe(4F), 4-Fluoro-L-phenylalanine], the “antiviral activity against T4 bacteriophage (in words)” value (T4 bacteriophage [2]; in solution) is reported as “did not decrease the viral titer” and the “antiviral activity against T4 bacteriophage (in words)” value (T4 bacteriophage [2]; in solution, listed as 4-Fluoro-L-phenylalanine) is reported as “no antiviral activity”.

With `N[C@@H](Cc1ccccc1)C(=O)O` [L-Phe, L-phenylalanine] the “antiviral activity against T4 bacteriophage (in words)” value (T4 bacteriophage [2]; in solution, listed as L-Phenylalanine) was “no antiviral activity” and the “effect on CCV (in words)” value (Canine coronavirus (CCV)) was “did not show any antiviral activity”.

With DOPA-Phe(Br)—NH2 the “eradication of fruit and plant viruses” value (fruit and plant viruses) was “capable of eradicating fruit and plant viruses”.

In the case of DOPA-Phe(Br)—OH, the “eradication of fruit and plant viruses” value (fruit and plant viruses) is reported as “capable of eradicating fruit and plant viruses”.

In the case of H-Phe-Phe-OH [Diphenylalanine], the “antiviral activity of drop-casted controls against T4 bacteriophage (in words)” value (T4 bacteriophage [1]) is reported as “did not decrease the viral titers; also recorded: did not exhibit antiviral activity”, the “antiviral activity against T4 bacteriophage (in words)” value (T4 bacteriophage [2]; in solution, listed as Phe-Phe) is reported as “did not decrease the viral titer” and the “antiviral activity against T4 bacteriophage (in words)” value (T4 bacteriophage [2]; in solution, listed as diphenylalanine) is reported as “did not show any antiviral activity”. For the same compound, the “log (TCID50/mL) of CCV” value (Canine coronavirus (CCV)) was 4.67±0.42 log (TCID50/mL) and the “effect on CCV (in words)” value (Canine coronavirus (CCV)) was “do not appreciably affect the viability of CCV; also recorded: did not show any antiviral activity”.

For “Phe(4F)-Phe(4F)—OMe [Phe(4F)-Phe(4F)-Ome]”, the “antiviral activity against T4 bacteriophage (in words)” value (T4 bacteriophage [2]; in solution) was “did not decrease the viral titer”.
